Measurements reported in PMC5059921, “Chalepin: isolated from Ruta angustifolia L. Pers induces mitochondrial mediated apoptosis in lung carcinoma cells” (BMC Complementary and Alternative Medicine, 2016).
Like-named read-outs stand apart in the source and are kept apart here.

What was measured:
A549 cell line = assay: SRB in vitro cytotoxicity screening; format: cell-based, human; conditions: isolated compounds
Protocol: (§1) The human cell lines A549 (lung cancer) and Ca Ski (cervical cancer) were cultured as monolayer in RPMI 1640 growth media whereas HCT-116 (colon cancer) and MRC5 (human normal lung fibroblasts) was cultured in McCoy’s 5A and EMEM medium, respectively. All cells were purchased from the […] (ATCC, USA). All the media were supplemented with 10 % v/v foetal bovine serum (FBS), 100 μg/mL penicillin/streptomycin, and 50 μg/mL amphotericin B. The cells were cultured in a 5 % CO2 incubator at 37 °C.
(§2) The monolayer cell culture was detached using accutase and the cell count was adjusted to 2.5 x10^5 -3.0 x10^5 cells/mL using medium containing feotal bovine serum. The cells were then plated into 96 wells with a cell density of 5000-7000 cells/well and then incubated for 24 h to allow adherence of cells to the base of well of the plates. The media was then removed and 200 μl of fresh media containing different concentration of various extracts or isolated compounds were added. Cisplatin was used as the positive control. The plates were incubated for 24, 48 and 72 h at 37 °C and 5 % CO2. The cytotoxicity of the extracts and isolated compounds were screened using the […] (SRB) assay. This assay was first described by Houghton in 2007 [8]. The incubation was halted by gentle addition of 50 μl ice cold 4 % trichloroacetic acid (TCA) to each well and the plates were incubated at 4 °C for 1 h. Then, the supernatant was discarded and the plates were washed with distilled water for 5 times and then air dried. SRB dye, 50 μl, (0.4 % w/v) was added into each well and the treated cells and control were incubated at room temperature for 30 min. The unbound dye was removed by rapid washing four times with 1 % acetic acid. The plates were then air dried and 100 μl of tris base (10 mM unbuffered, pH 10.5) was added and the plates were shaken at 500 rpm for 5 min to solublize the bound SRB stain. The plates were then read with an ELISA reader (Synergy H1 Hybrid) at an absorbance of 492 nm.

[1] = test system: MRC5 (human normal lung fibroblasts); assay: SRB in vitro cytotoxicity screening (toxicity to normal cells); format: cell-based; conditions: isolated compounds; for IC50: 72 h, read-out: IC50 in μg/ml (μM) (MRC5) 72 h (converted)
Protocol: as §1, §2

[2] = test system: DLD (DLD-1): Human colon adenocarcinoma; set-up: method as in earlier work; conditions: cited from earlier work
Hepa: Human hepatoma = test system: Hepa: Human hepatoma; set-up: method as in earlier work; conditions: cited from earlier work
washed rabbit platelets = test system: washed rabbit platelets; set-up: method as in earlier work; key to effect on platelet aggregation (class symbol): A: P latelet aggregation was promoted; conditions: cited from earlier work; for % inhibition of platelet aggregation, inducer AA: AA 100 /c109/c77; for % inhibition of platelet aggregation, inducer PAF: PAF 2ng/mL; for % inhibition of platelet aggregation, inducer Col: collagen 10 /c109g/mL; for % inhibition of platelet aggregation, inducer Thr: thrombin 0.1 U/mL; for antiplatelet aggregation activity (in words): at 100 /c109g/mL
[3] = Homo sapiens, A549, 48 h, value in brackets, read-out: IC50 in μg/ml (μM) (A549) 48 h (converted)
[4] = Homo sapiens, A549, 48 h, read-out: IC50 in μg/ml (μM) (A549) 48 h (converted)
[5] = Homo sapiens, A549, 72 h, value in brackets, read-out: IC50 in μg/ml (μM) (A549) 72 h (converted)
[6] = Homo sapiens, A549, 72 h, read-out: IC50 in μg/ml (μM) (A549) 72 h (converted)
[7] = Homo sapiens, MRC5, value in brackets

| Compound | IC50 (A549 cell line; [3]) | IC50 (A549 cell line; [4]) | IC50 (A549 cell line; [5]) | IC50 (A549 cell line; [6]) | IC50 [1, 7] | IC50 ([1]; Homo sapiens, MRC5) | ED50 Hepa (Hepa: Human hepatoma) | antiplatelet aggregation activity (in words) (washed rabbit platelets) | also measured |
| --- | --- | --- | --- | --- | --- | --- | --- | --- | --- |
| C=CC(=C)CCCC(C)CCCC(C)CCCC(C)C (stereo not shown) [Neophytadiene, neophytadiene] | 249 µM | 69.2 ± 1.06 µg/mL | 245 µM | 68 ± 2.43 µg/mL | 278 µM | 77.4 ± 0.98 µg/mL | – | – | – |
| COc1cc2nc3occc3c(OC)c2cc1OC [Kokusaginine, kokusaginine] | – | – | – | – | 289 µM | 74.8 ± 0.82 µg/mL | – | – | IC50 (A549 cell line; Homo sapiens, A549, 48 h, 48 h, value in brackets, read-out: IC50 in μg/ml (μM) (A549) 48 h (converted)): 338 µM; IC50 (A549 cell line; Homo sapiens, A549, 48 h, 48 h, read-out: IC50 in μg/ml (μM) (A549) 48 h (converted)): 87.4 ± 7.08 µg/mL; IC50 (A549 cell line; Homo sapiens, A549, 72 h, 72 h, value in brackets, read-out: IC50 in μg/ml (μM) (A549) 72 h (converted)): > 386 µM; IC50 (A549 cell line; Homo sapiens, A549, 72 h, 72 h, read-out: IC50 in μg/ml (μM) (A549) 72 h (converted)): > 100 µg/mL |
| COc1cc2c(c(O)c1OC)c(=O)c1ccccc1n2C [Compound 2, arborinine] | – | – | – | – | – | – | - (“-“: ED50 /c6220 /c109g/mL) | no obvious activity | ED50 DLD [2]: - (“-“: ED50 /c6220 /c109g/mL); % inhibition of platelet aggregation, inducer AA (washed rabbit platelets; Conc. 50 /c109g/mL): 51.6%; % inhibition of platelet aggregation, inducer PAF (washed rabbit platelets; Conc. 50 /c109g/mL): 4.8%; % inhibition of platelet aggregation, inducer Col (washed rabbit platelets; Conc. 50 /c109g/mL): 39.1%; % inhibition of platelet aggregation, inducer Thr (washed rabbit platelets; Conc. 50 /c109g/mL): 1.1% |
| 1-hydroxy-N-methylacridone [Compound 1] | – | – | – | – | – | – | - (“-“: ED50 /c6220 /c109g/mL) | no obvious activity | % inhibition of platelet aggregation, inducer AA (washed rabbit platelets; Conc. 20 /c109g/mL): 17.8%; % inhibition of platelet aggregation, inducer PAF (washed rabbit platelets; Conc. 20 /c109g/mL): 3.4%; % inhibition of platelet aggregation, inducer Col (washed rabbit platelets; Conc. 20 /c109g/mL): 3.7%; % inhibition of platelet aggregation, inducer Thr (washed rabbit platelets; Conc. 20 /c109g/mL): 4.3%; effect on platelet aggregation (class symbol) (washed rabbit platelets; Conc. 50 /c109g/mL, inducer column cannot be told): A |
| COc1c2ccoc2c(OC)c2oc(=O)ccc12 [Compound 11, isopimpinellin] | – | – | – | – | – | – | – | no obvious activity | % inhibition of platelet aggregation, inducer AA (washed rabbit platelets; Conc. 100 /c109g/mL): 30.4%; % inhibition of platelet aggregation, inducer PAF (washed rabbit platelets; Conc. 100 /c109g/mL): 4.5%; % inhibition of platelet aggregation, inducer Col (washed rabbit platelets; Conc. 100 /c109g/mL): 8.0%; % inhibition of platelet aggregation, inducer Thr (washed rabbit platelets; Conc. 100 /c109g/mL): 3.9% |
| CC(=O)CCCCc1ccc2c(c1)OCO2 [Moskachan B, moskachan B] | > 454 µM | > 100 µg/mL | > 454 µM | > 100 µg/mL | > 454 µM | > 100 µg/mL | – | – | – |
| Cn1c(-c2ccc3c(c2)OCO3)cc(=O)c2ccccc21 [Graveoline, graveoline] | 274 µM | 76.3 ± 2.08 µg/mL | 160 µM | 44.6 ± 0.47 µg/mL | 250 µM | 69.7 ± 2.5 µg/mL | – | – | – |
| C=CC(C)(C)c1cc2cc3c(cc2oc1=O)OC(C(C)(C)OC(C)=O)C3 (stereo not shown) [Compound 14, rutamarin] | – | – | – | – | – | – | - (“-“: ED50 /c6220 /c109g/mL) | no obvious activity | % inhibition of platelet aggregation, inducer AA (washed rabbit platelets; Conc. 50 /c109g/mL): 7.6%; % inhibition of platelet aggregation, inducer PAF (washed rabbit platelets; Conc. 50 /c109g/mL): 4.5%; % inhibition of platelet aggregation, inducer Col (washed rabbit platelets; Conc. 50 /c109g/mL): 10.5%; % inhibition of platelet aggregation, inducer Thr (washed rabbit platelets; Conc. 50 /c109g/mL): 3.0% |
| CC(=O)CCCCCCc1ccc2c(c1)OCO2 [Moskachan D, moskachan D] | 312 µM | 77.5 ± 3 µg/mL | 74.6 µM | 18.5 ± 0.65 µg/mL | 366 µM | 90.8 ± 0.8 µg/mL | – | – | – |
| Cn1c(-c2ccc3c(c2)OCO3)cc(=O)c2ccccc21 [Compound 17, graveoline] | – | – | – | – | – | – | - (“-“: ED50 /c6220 /c109g/mL) | no obvious activity | ED50 DLD [2]: - (“-“: ED50 /c6220 /c109g/mL); % inhibition of platelet aggregation, inducer AA (washed rabbit platelets; Conc. 50 /c109g/mL): 9.5%; % inhibition of platelet aggregation, inducer PAF (washed rabbit platelets; Conc. 50 /c109g/mL): 6.2%; % inhibition of platelet aggregation, inducer Col (washed rabbit platelets; Conc. 50 /c109g/mL): 5.2%; % inhibition of platelet aggregation, inducer Thr (washed rabbit platelets; Conc. 50 /c109g/mL): 1.1% |
| COc1c2ccoc2cc2oc(=O)ccc12 [Bergapten, bergapten] | > 463 µM | > 100 µg/mL | 202 µM | 43.5 ± 1.81 µg/mL | > 463 µM | > 100 µg/mL | – | – | – |
| N.N.[Cl][Pt][Cl] [Cisplatin, reference compound] | – | – | – | – | – | – | – | – | IC50 in μg/ml (μM) (A549) 72 h (A549 cell line; 72 h): 24.5 ± 1.8 µg/mL; IC50 (A549 cell line; 72 h, value in brackets, read-out: IC50 in μg/ml (μM) (A549) 72 h (converted)): 81.7 µM; IC50 in μg/ml (μM) (MRC5) 72 h [1]: > 100 µg/mL; IC50 ([1]; value in brackets): > 333 µM |
| COc1cc2nc3occc3c(OC)c2cc1OC [Compound 6, kokusaginine] | – | – | – | – | – | – | - (“-“: ED50 /c6220 /c109g/mL) | no obvious activity | ED50 DLD [2]: - (“-“: ED50 /c6220 /c109g/mL); % inhibition of platelet aggregation, inducer AA (washed rabbit platelets; Conc. 100 /c109g/mL): 42.2%; % inhibition of platelet aggregation, inducer PAF (washed rabbit platelets; Conc. 100 /c109g/mL): 3.5%; % inhibition of platelet aggregation, inducer Col (washed rabbit platelets; Conc. 100 /c109g/mL): 53.1%; % inhibition of platelet aggregation, inducer Thr (washed rabbit platelets; Conc. 100 /c109g/mL): 0.9% |
